Legend:
Btk = target: T1, Btk (Homo sapiens, UniProt Q06187); experiment: Btk in vitro radioassay (33P-ATP, Poly(Glu,Tyr)); format: biochemical; conditions: Btk inhibition; reported after Biological Example 2; read-out: IC50 over Btk
T1 construct: purchased Invitrogen
Method: The diluted solution (1 μl) of the compound of the present invention in DMSO was added to 96-well assay plates. Additionally, Btk kinase solution (39 μL) composed of Btk (1.3 nM, Invitrogen), Tris (12.5 mM; pH7.5), Triton X-100 (0.01%), glycerol (5%), MgCl2 (10 mM), EGTA (1 mM), glycerol 2-phosphate (5 mM), DTT (2 mM) and sodium orthovanadate (0.5 mM) was added to 96-well assay plate. The solution was pre-incubated for 20 minutes at 30° C. Then ATP/peptide solution (10 μL) composed of Poly (Glu, Tyr) (0.20 mg/mL, Sigma) and ^33P-ATP (47 μM, PerkinElmer) was added. After incubating at 30° C. for 12 minutes, the reaction was stopped by adding 10 μL of 0.6M phosphoric acid to each well. The each reaction from the 96-well assay plate was transferred to 96-well filter plate. The reaction mixture was analyzed on the radioactive survey equipment (TopCount NXT HTS; PerkinElmer) to read count efficiency.
The inhibition rate (%) of the compound of the present invention was calculated with the following formula: Inhibition rate(%)={1−(counts−B100)/(B0−B100)}×100 B0: average counts for 0% inhibition control (i.e., no compound) B100: average counts for 100% inhibition control (i.e., no enzyme)
The value of 50% inhibition rate (IC50) for the compounds of the present invention was determined from inhibition curve based on inhibition rate at each concentration of the compound of the present invention.

LynA = LynA (Homo sapiens, UniProt P07948); experiment: Z'-lyte kinase assay (FRET), inhibitory activity to other kinases: LynA; format: biochemical; conditions: selectivity ratio, Biological Example 1 and 2
Method: (§1) Btk tyrosine phosphorylation reaction was carried out using Z′-lyte kinase assay kit—Tyr 1 peptide (Invitrogen) consisting of the following reagent (Tyr 1 peptide, Thy 1 phospho-peptide, 5× kinase buffer, ATP, development regent B, development buffer, and stop reagent) and Btk. Btk activity was determined using fluorescence resonance energy transfer (FRET) method.
(§2) The diluted solution (5 μl) of the compound of the present invention in dimethyl sulfoxide (DMSO; Sigma) was added to 96-well assay plates. Additionally, the peptide/kinase solution (10 μl) composed of DL-Dithiothreitol (DTT; 2 mM), Tyr 1 peptide (2 μM), kinase buffer and Btk (5 nM, Invitrogen) was added to the assay plates and the reaction solution was pre-incubated for 20 minutes at 25° C. Then, the ATP solution (5 μl) composed of adenosine triphosphate (ATP; 36 μM) and kinase buffer was added and the reaction solution was incubated for 1 hour at 25° C. After the incubation, the development solution B (10 μl) composed of development reagent B and development buffer was added and the reaction solution was incubated for 1 hour at 25° C. The stop solution (10 μl) was added to each well to arrest the enzyme reaction. The fluorescence emission of each well was measured on a fluorescence plate reader at a wavelength of 445 nm and 520 nm. The phospholyration ratio was determined by the emission rate of the fluorescence at 445 nm to 520 nm according to manufacturer's instruction.
(§3) The inhibition rate (%) of the compounds of the present invention was calculated with the following formula: Inhibition rate(%)=1−{(AX−AB)/(AC−AB)}×100 AX: phospholyration ratio at addition of the compound of the present invention AB: phospholyration ratio at blank AC: phospholyration ratio at only addition of DMSO
(§4) The value of 50% inhibition rate (IC50) for the compound of the present invention was determined from inhibition curve based on inhibition rate at each concentration of the compound of the present invention.
(§5) Research for inhibitory activity to other kinases (such as Lck, Fyn, LynA) was performed in similar procedure above described.

Fyn = Fyn (Homo sapiens, UniProt P06241); experiment: Z'-lyte kinase assay (FRET), inhibitory activity to other kinases: Fyn; format: biochemical; conditions: selectivity ratio, Biological Example 1 and 2
Method: as §1, §2, §3, §4, §5

Lck = Lck (Homo sapiens, UniProt P06239); experiment: Z'-lyte kinase assay (FRET), inhibitory activity to other kinases: Lck; format: biochemical; conditions: selectivity ratio, Biological Example 1 and 2
Method: as §1
The diluted solution (5 μl) of the compound of the present invention in dimethyl sulfoxide (DMSO; Sigma) was added to 96-well assay plates. Additionally, the peptide/kinase solution (10 μl) composed of DL-Dithiothreitol (DTT; 2 mM), Tyr 1 peptide (2 μM), kinase buffer and Btk (5 nM, Invitrogen) was added to the assay plates and the reaction solution was pre-incubated for 20 minutes at 25° C. […] The fluorescence emission of each well was measured on a fluorescence plate reader at a wavelength of 445 nm and 520 nm. The phospholyration ratio was determined by the emission rate of the fluorescence at 445 nm to 520 nm according to manufacturer's instruction.
as §3, with “DMSO […]” for “DMSO”

[1] = Pharmacokinetic profile in rats; format: in vivo; conditions: rat, plasma, fasted male Sprague-Dawley rats
Method: Using fasted male Sprague-Dawley rats (250-400 gram; Hilltop Labs), the plasma concentration of the compound of the present invention after intravenous administration at a dose of 1 mg/kg and the plasma concentration after oral gavage administration at a dose of 2 mg/kg were measured. The blood samples (˜0.25 mL) was collected from a rat jugular vein under an unanesthetized condition 1, 5, 15, and 30 minutes, and 1, 2, 4, 8, 12 and 24 hours after intravenous administration, and 5, 15 and 30 minutes, and 1, 1.5, 2, 4, 8, 12 and 24 hours after oral administration. Then the blood samples placed into chilled tubes containing sodium heparin and kept on ice until centrifugation. The samples were centrifuged at a temperature of 4° C. at 13,000 rpm for 5 minutes and the supernatant was collected as plasma. The concentration of the compound in plasma was measured with LC/MS/MS (Acquity HPLC coupled with a quattromicro mass spectrometer, Waters Corp.). From the obtained plasma concentration, an area under the curve (AUC, ng·h/ml), a maximum plasma concentration.(Cmax, μg/mL) and a clearance (CL, mL/hr/kg) were calculated. In addition, Bioavailability (B.A.) of the compound of the present invention was calculated from AUC in oral administration and AUC in intravenous administration.

mouse splenocytes = experiment: B cell activation assay using mouse splenocytes (anti-IgM stimulated CD69 in CD19 positive cells, FACS); format: cell-based; conditions: Splenocyte; anti-mouse IgM stimulation 6 hours; CD69 MFI in CD19 positive cells
Method: Splenocytes collected from C57B1/6 or Balb/c mice were suspended in RPMI 1640 (Invitrogen), supplemented with 10% fetal bovine serum (FBS). The diluted solution (1 μl) of the compound of the present invention and the suspension of the mouse splenocytes (49 μl) were added to 96-well plate and incubated at 37° C. for 60 min. Cells were stimulated with 10 μl of anti-mouse IgM (Jackson Immunoresearch). Samples were stimulated at 37° C. for 6 hours, 5% CO2 and treated with 10 μl/well Fc block (BD Biosciences) for 15 min on ice in the dark. The diluted solution (10 μl) of antibody (1:2:2 mix of each, Allphycocyanin (APC)-labeled anti-mouse CD3e, Phycoerythrin (PE)-labeled anti-mouse CD19 and Fluorescein Isothiocyanate (FITC) labeled anti-mouse CD69) was added to 96-well collection plate. Samples were transferred to the 96-well collection plate and incubated for 30 min on ice in the dark. Samples were treated with Lyse/Fix solution (1.6 ml/well, BD biosciences) at 37° C. in collection plates and were incubated for at 37° C. for 15 min. Cells were collected by centrifugation at 2000 rpm for 10 min repeatedly, resuspended in stain buffer (BD Biosciences) and analyzed by FACS to determine mean fluorescence intensity (MFI) of CD69 in the CD19 positive cell population. […]

[2] = oral 2 mg/kg / i.v. 1 mg/kg study, route of the value not given

LynA, sequence (P07948 whole entry): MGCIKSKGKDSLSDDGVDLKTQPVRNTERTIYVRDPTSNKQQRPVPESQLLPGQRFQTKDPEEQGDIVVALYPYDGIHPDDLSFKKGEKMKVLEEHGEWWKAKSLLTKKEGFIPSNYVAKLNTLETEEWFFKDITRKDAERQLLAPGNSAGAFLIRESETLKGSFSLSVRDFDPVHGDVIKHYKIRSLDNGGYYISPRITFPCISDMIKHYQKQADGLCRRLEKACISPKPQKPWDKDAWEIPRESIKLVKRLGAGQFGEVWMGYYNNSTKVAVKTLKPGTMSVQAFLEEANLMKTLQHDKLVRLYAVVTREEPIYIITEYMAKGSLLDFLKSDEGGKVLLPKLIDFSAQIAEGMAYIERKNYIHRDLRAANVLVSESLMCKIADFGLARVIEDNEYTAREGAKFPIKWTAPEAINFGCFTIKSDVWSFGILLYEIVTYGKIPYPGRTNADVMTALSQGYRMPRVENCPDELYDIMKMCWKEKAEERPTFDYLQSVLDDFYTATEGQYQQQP
T1 sequence (Q06187 whole entry): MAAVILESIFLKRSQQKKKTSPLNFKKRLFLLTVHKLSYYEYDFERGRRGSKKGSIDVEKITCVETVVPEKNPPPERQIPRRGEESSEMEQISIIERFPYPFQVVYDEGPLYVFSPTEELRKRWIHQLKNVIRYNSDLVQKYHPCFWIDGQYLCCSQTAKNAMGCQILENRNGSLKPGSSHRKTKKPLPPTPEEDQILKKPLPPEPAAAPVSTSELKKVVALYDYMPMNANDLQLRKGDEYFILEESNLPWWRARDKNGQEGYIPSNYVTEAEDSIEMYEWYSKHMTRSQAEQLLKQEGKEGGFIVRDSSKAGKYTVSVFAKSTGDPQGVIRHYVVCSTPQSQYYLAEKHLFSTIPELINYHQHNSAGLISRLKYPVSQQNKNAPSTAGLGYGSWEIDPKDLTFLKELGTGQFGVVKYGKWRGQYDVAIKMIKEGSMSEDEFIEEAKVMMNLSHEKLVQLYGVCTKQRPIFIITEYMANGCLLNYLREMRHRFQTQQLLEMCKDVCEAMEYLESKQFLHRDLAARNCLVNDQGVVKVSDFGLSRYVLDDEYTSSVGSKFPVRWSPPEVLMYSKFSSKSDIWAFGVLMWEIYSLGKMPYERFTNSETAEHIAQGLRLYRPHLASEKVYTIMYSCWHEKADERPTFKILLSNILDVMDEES
Fyn, sequence (P06241 whole entry): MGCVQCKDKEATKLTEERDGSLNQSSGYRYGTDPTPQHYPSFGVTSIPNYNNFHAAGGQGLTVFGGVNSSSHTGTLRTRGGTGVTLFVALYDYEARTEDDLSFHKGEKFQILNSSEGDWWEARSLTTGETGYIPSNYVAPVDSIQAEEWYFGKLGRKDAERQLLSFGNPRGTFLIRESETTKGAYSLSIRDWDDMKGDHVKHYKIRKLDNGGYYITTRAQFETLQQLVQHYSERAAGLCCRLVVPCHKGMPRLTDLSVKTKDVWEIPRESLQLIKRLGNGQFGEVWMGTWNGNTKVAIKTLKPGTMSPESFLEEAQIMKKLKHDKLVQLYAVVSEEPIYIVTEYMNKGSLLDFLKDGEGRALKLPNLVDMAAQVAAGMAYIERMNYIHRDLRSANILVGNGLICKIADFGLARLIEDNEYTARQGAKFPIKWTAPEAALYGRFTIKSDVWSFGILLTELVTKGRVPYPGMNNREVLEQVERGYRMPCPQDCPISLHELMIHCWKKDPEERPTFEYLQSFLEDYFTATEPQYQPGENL
Lck, sequence (P06239 whole entry): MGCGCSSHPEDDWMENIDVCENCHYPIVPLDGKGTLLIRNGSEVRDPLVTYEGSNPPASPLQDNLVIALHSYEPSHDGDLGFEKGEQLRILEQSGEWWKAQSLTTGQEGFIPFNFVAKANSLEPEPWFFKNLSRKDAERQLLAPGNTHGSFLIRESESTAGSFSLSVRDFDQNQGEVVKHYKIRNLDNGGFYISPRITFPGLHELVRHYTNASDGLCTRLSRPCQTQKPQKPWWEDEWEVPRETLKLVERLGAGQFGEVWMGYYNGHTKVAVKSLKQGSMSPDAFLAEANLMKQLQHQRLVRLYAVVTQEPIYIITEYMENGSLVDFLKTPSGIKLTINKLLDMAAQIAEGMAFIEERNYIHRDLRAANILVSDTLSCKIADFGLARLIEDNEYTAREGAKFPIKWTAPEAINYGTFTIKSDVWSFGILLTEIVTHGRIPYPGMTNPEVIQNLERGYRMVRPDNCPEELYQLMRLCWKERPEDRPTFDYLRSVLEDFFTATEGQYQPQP

IC50 (Btk) [nM]	LynA[IC50]/Btk[IC50] (LynA)	Fyn[IC50]/Btk[IC50] (Fyn)	SMILES	other results
5.8			COc1cccc(-c2c(CCCN(C)C)c(-c3ccc(Oc4ccccc4)cc3)c3c(N)ncnn23)c1 [Example 16(1), 6-(3-(dimethylamino)propyl)-7-(3-methoxyphenyl)-5-(4-phenoxyphenyl)pyrrolo[2,1-f][1,2,4]triazin-4-amine]	
65			COc1cccc(-c2c(CCCN3CCCC3)c(-c3ccc(Oc4ccccc4)cc3)c3c(N)ncnn23)c1 [Example 16(2), 7-(3-methoxyphenyl)-5-(4-phenoxyphenyl)-6-(3-(pyrrolidin-1-yl)propyl)pyrrolo[2,1-f][1,2,4]triazin-4-amine]	
12	78	917	COc1cccc(-c2c(CCCN3CCCC3)c(-c3ccc(Oc4ccc(Cl)c(Cl)c4)c(OC)c3)c3c(N)ncnn23)c1 [Example 16(3), 5-(4-(3,4-dichlorophenoxy)-3-methoxyphenyl)-7-(3-methoxyphenyl)-6-(3-(pyrrolidin-1-yl)propyl)pyrrolo[2,1-f][1,2,4]triazin-4-amine]	Lck[IC50]/Btk[IC50] (Lck): 40
22			CCN(CC)CC(=O)N1CCC(c2c(CCCN3CCCC3)c(-c3ccc(Oc4cccc(Cl)c4)c(OC)c3)c3c(N)ncnn23)CC1 [Example 21(1), 1-(4-(4-amino-5-(4-(3-chlorophenoxy)-3-methoxyphenyl)-6-(3-(pyrrolidin-1-yl)propyl)pyrrolo[2,1-f][1,2,4]triazin-7-yl)piperidin-1-yl)-2-(diethylamino)ethanone]	
16			CCN(CC)CC(=O)N1CCC(c2c(CCCN3CCCC3)c(-c3ccc(Oc4ccc(Cl)c(Cl)c4)c(OC)c3)c3c(N)ncnn23)CC1 [Example 21, 1-(4-(4-amino-5-(4-(3,4-dichlorophenoxy)-3-methoxyphenyl)-6-(3-(pyrrolidin-1-yl)propyl)pyrrolo[2,1-f][1,2,4]triazin-7-yl)piperidin-1-yl)-2-(diethylamino)ethanone]	
62			COc1cc(-c2c(C3CCNCC3)c(C3CCCC3)n3ncnc(N)c23)ccc1Oc1ccc(Cl)c(Cl)c1 [Example 25(1), 7-cyclopentyl-5-(4-(3,4-dichlorophenoxy)-3-methoxyphenyl)-6-(piperidin-4-yl)pyrrolo[2,1-f][1,2,4]triazin-4-amine]	
2	10000	>10000	C=CC(=O)N1CCCC(c2c(Cl)c(-c3ccc(Oc4ccc(Cl)c(Cl)c4)c(OC)c3)c3c(N)ncnn23)C1 (stereo not drawn) [Example 32(1), 1-(3-(4-amino-6-chloro-5-(4-(3,4-dichlorophenoxy)-3-methoxyphenyl)pyrrolo[2,1-f][1,2,4]triazin-7-yl)piperidin-1-yl)prop-2-en-1-one]	
2	1389	7222	C=CC(=O)N1CCCC(c2c(Cl)c(-c3ccc(Oc4cccc(Cl)c4)c(OC)c3)c3c(N)ncnn23)C1 (stereo not drawn) [Example 32, 1-(3-(4-amino-6-chloro-5-(4-(3-chlorophenoxy)-3-methoxyphenyl)pyrrolo[2,1-f][1,2,4]triazin-7-yl)piperidin-1-yl)prop-2-en-1-one]	clearance ([1]; intravenous, oral 2 mg/kg / i.v. 1 mg/kg study): 17.8 mL/day/kg; bioavailability ([1]; from AUC oral 2 mg/kg and AUC i.v. 1 mg/kg, read-out: B.A. (Bioavailability)): 24%; AUC [1, 2]: 652 ng·h/mL; Cmax [1, 2]: 227 ng/mL; IC50 (mouse splenocytes): 130 nM; Lck[IC50]/Btk[IC50] (Lck): 161

Source: patent US8765754B2, “Pyrrolotriazine compounds” (Locus Pharmaceuticals, Inc., priority 2009, dated 2014)
